Assay results published in patent publication US8580288B2, “Agricultural or horticultural fungicide composition and its use for controlling plant pathogens” (Ishihara Sangyo Kaisha, Ltd, priority 2009, dated 2013).
Where two headings read alike, the source gives them in different places.

What was measured:
Pythium aristosporum = test: Inhibition test of mycelial growth against Pythium aristosporum; assay type: cell-based; conditions: 48 h, PSA, 2 days, 20° C., read-out: Inhibition Rate of Mycelial Growth against Pythium aristosporum
Procedure: (§1) Pythium aristosporum was precultured. And the obtained hyphae (4 mm in diameter) was transplanted on potato sucrose agar medium (PSA) including an agent at a predetermined concentration, and then cultured for two days at room temperature of 20° C., followed by measuring a diameter of the mycelial colony to obtain an inhibition rate of mycelial growth. In addition, a theoretical value of the inhibition rate was calculated using Colby's formula and listed in parentheses of Table 1.

Pythium aphanidermatum = test: Inhibition test of mycelial growth against Pythium aphanidermatum; assay type: cell-based; conditions: read-out: Inhibition Rate of Mycelial Growth against Pythium aphanidermatum
Procedure: [Worded in the source for another organism; this organism is reported under the same test.] as §1, with “growth. The inhibition rate of mycelial growth was obtained by measuring a diameter of mycelial colony in the same manner as Test Example 1.” for “growth.”, “2.” for “1.”

[1] = Cyazofamid 0.1 ppm alone (Folpet 0 ppm)
[2] = Cyazofamid 1 ppm alone (Folpet 0 ppm)
[3] = Cyazofamid 10 ppm alone (Folpet 0 ppm)
[4] = Cyazofamid 100 ppm alone (Folpet 0 ppm)
[5] = Folpet 0.1 ppm alone (Cyazofamid 0 ppm)
[6] = Folpet 1 ppm alone (Cyazofamid 0 ppm)
[7] = Folpet 10 ppm alone (Cyazofamid 0 ppm)
[8] = Folpet 100 ppm alone (Cyazofamid 0 ppm)

Row | Compound | inhibition at 0.1 ppm (Pythium aristosporum; [1]) | inhibition at 1 ppm (Pythium aristosporum; [2]) | inhibition at 10 ppm (Pythium aristosporum; [3]) | inhibition at 100 ppm (Pythium aristosporum; [4]) | inhibition at 0.1 ppm (Pythium aphanidermatum; [1]) | inhibition at 1 ppm (Pythium aphanidermatum; [2]) | inhibition at 10 ppm (Pythium aphanidermatum; [3]) | inhibition at 100 ppm (Pythium aphanidermatum; [4]) | inhibition at 0.1 ppm (Pythium aristosporum; [5]) | inhibition at 1 ppm (Pythium aristosporum; [6]) | inhibition at 10 ppm (Pythium aristosporum; [7]) | inhibition at 100 ppm (Pythium aristosporum; [8]) | inhibition at 0.1 ppm (Pythium aphanidermatum; [5]) | inhibition at 1 ppm (Pythium aphanidermatum; [6]) | inhibition at 10 ppm (Pythium aphanidermatum; [7]) | inhibition at 100 ppm (Pythium aphanidermatum; [8])
1 | Cc1ccc(-c2c(Cl)nc(C#N)n2S(=O)(=O)N(C)C)cc1 [Cyazofamid, 4-chloro-2-cyano-1-dimethylsulfamoyl-5-(4-methylphenyl)imidazole] | 17% | 38% | 38% | 41% | 54% | 52% | 60% | 80% |  |  |  |  |  |  |  | 
2 | O=C1c2ccccc2C(=O)N1SC(Cl)(Cl)Cl [Folpet, N-(trichloromethanesulphenyl)phthalimide] |  |  |  |  |  |  |  |  | 3% | 3% | 45% | 90% | 2% | 0% | 62% | 80%
